This is an account of results in publication PMC9276676, “Difluoromethylornithine (DFMO) and AMXT 1501 inhibit capsule biosynthesis in pneumococci” (Scientific Reports, 2022).

Values after ≈ are worked out from the molar mass of the structure shown. Read-outs that look alike come from different tables or passages of the source.

In test [1] the test system is S. pneumoniae serotype 2 (D39). Kind of test: DFMO susceptibility and growth in THY (OD600, MIC). It counts as cell-based, Streptococcus pneumoniae. Conditions: Streptococcus pneumoniae. As for the experimental part: S. pneumoniae serotypes 4 (TIGR4), 2 (D39), 19F (EF3030) and 3 (WU2) were cultured in Todd Hewitt broth supplemented with yeast extract (THY). Supplementation with DFMO ranging from 1.1 to 549 mM was carried out in triplicate in a 96-well plate and incubated at 37 °C and 5% CO2 in a Cytation™ 5 cell imaging multi-mode reader (BioTek, Winooski, VT). The change in optical density at 600 nm (OD600) was measured every hour for 24 h and used to determine the minimum inhibitory concentration (MIC) of DFMO. The optical density data was analyzed using GrowthRates 4.0 software. To determine whether DFMO at sub-MIC is bacteriostatic or lethal to pneumococcal cells, all strains were cultured in the presence or absence of 1/2 MIC DFMO. OD600 was measured every hour and CFU were enumerated on a blood agar plate (BAP) every 2 h over an 8 h incubation period.

The test system of another test is S. pneumoniae D39. It counts as cell-based, Streptococcus pneumoniae. As for the experimental part:
This was done to directly compare possible changes in intracellular concentrations of polyamines and capsule precursors as a result of DFMO inhibition of polyamine synthesis to the earlier report where polyamine synthesis was affected via gene deletion in TIGR4[24]. […] Cells were harvested (5000×g, 10 min, 4 °C), re-suspended in extraction solvent [40% acetonitrile, 40% methanol, 20% water with formic acid (0.1 M)] and transferred to bead-beater tubes (MP Biomedicals, Irvine, CA, USA). Cells were lysed using a FastPrep-24™ Classic (45 s, 6.5 m/s, RT, 3 times) (MP Biomedicals, Irvine, CA, USA) and incubated on ice (5 min after each spin). TIGR4 lysates were clarified (6000×g, 5 min, 4 °C), and metabolite differentiation and detection were performed using published protocols[28],[29]. Liquid chromatography-mass spectrometry-based (LC–MS) metabolomic analysis was performed with an Agilent Accurate Mass 6230 TOF coupled with an Agilent 1290 LC system using a Cogent Diamond Hydride Type C column. Briefly, the mobile phase consisted of the following: solvent A (ddH2O with 0.2% formic acid) and solvent B (acetonitrile with 0.2% formic acid). The gradient used was as follows: 0–2 min, 85% B; 3–5 min, 80% B; 6–7 min, 75% B; 8–9 min, 70% B; 10–11.1 min, 50% B; 11.1–14 min 20% B; 14.1–24 min 5% B followed by a 10 min re-equilibration period at 85% B at a flow rate of 0.4 mL/min. Mass axis dynamics was calibrated by continuous infusion of a reference mass solution using an isocratic pump. […] Metabolite identities were searched for using a mass tolerance of < 0.005 Da. Metabolite concentrations from the 5 biological replicates were normalized to biomass based on measurement of residual peptide content in individual samples using the Pierce BCA Protein Assay kit (Thermo Fisher Scientific, Waltham, MA, USA). Data were analyzed using Profinder B.07.00 software (Agilent Technologies, Santa Clara, CA, USA). Extracted molecular features detected in the mass analyzer were identified using accurate mass values and used to generate empirical molecular formulae using an in-house metabolite database that included known intermediates, amino acid precursors and polyamines and their derivatives. Statistical analysis of metabolite peak intensity data was performed using MetaboAnalyst 4.0[30]. Data were normalized (quantile), log transformed and significant fold change between WT and DFMO-treated WT were identified by Student’s t-test (p ≤ 0.05).
To measure the polyamines, glucose and glucuronic acid in D39, TSQ Quantum Access triple-quadrupole tandem mass spectrometer (Thermo Fisher Scientific, Waltham, MA, USA) equipped with acquity UPLC system (Waters, Milford, MA, USA) was operated in positive and negative ion mode. Chromatographic separation was performed on Cogent Diamond Hydride HPLC column (2.1 mm × 150 mm, 4 μm) coupled with Congent Diamond Hydride HPLC Guard column (2.0 mm × 10 mm, 4 μm). The flow rate was 500 µL/min, the sample injection volume was 10 µL, and the column temperature was at 40 °C. The mobile phase A was composed of water with 0.1% v/v formic acid, and mobile phase B was composed of acetonitrile with 0.1% v/v formic acid. The gradient condition was 0 min (5% A, 95% B), 1 min (5% A, 95% B), 4.0 min (30% A, 70% B), 6 min (95% A, 5% B), 6.5 min (95% A, 5% B), 7 min (5% A, 95% B), and 10 min (5% A, 95%B). The total run time was 10 min, and the column eluate directed into the mass spectrometer using an electrospray ionization interface in positive and negative modes. The MS conditions were set as follow: spray voltage = 3500 V, vaporizer temperature = 350 °C, sheath gas = 25 psi, auxiliary gas = 10 psi, and capillary temperature = 350 °C. Samples were run in selected reaction monitoring (SRM) mode, and the optimized MS/MS parameters for ionization are given in Table 1.

In another test the test system is WU2 (serotype 3) capsule. Kind of test: Total capsular polysaccharide (CPS) immunoblot with densitometry. It counts as cell-based, Streptococcus pneumoniae. The following applies: serotype 3; AMXT 1501 at 1/2 MIC. As for the experimental part:
(§1) S. pneumoniae strains were cultured with DFMO and AMXT 1501 at varying final concentrations of 1/2, 1/4, and 1/8 MIC to OD600 0.2–0.3 either individually or together to estimate any additive or synergistic effects. Capsular polysaccharides (CPS) were extracted and quantified in triplicate, as described previously[26] with slight modification. Briefly, CPS was extracted in a lysis buffer (4% deoxycholate, 50 µg/mL DNAse I and 50 µg/mL RNAse A) at 37 °C for 10 min and centrifuged at 18,000×g for 10 min. The supernatant (2 µL) was spotted on a 0.2-µm-pore-size nitrocellulose membrane (Thermo Fisher Scientific, Waltham, MA, USA) and oven dried at 60 °C for 15 min. The membranes were blocked and incubated with different types of antisera for capsule detection: antisera type- 4 (for TIGR4), 2 (for D39), polyclonal (for EF3030) and 3 (for WU2) (Cedarlane, Burlington, NC, USA). A conjugated polyclonal goat anti-rabbit IgG-HRP (Agilent Technologies, Santa Clara, CA, USA) was used for enhanced chemiluminescence (ECL) detection in all the strains (Thermo Fisher Scientific, Waltham, MA, USA) and scanned using a ChemiDoc XRS+ with Image Lab software (Bio-Rad, Hercules, CA, USA). Densitometry analysis of the immunoblot was done with NIH ImageJ software.
(§2) We determined the impact of varying concentrations of DFMO (1/8 to 1/2 MIC) on CPS in all serotypes (2, 4, 19F, and 3) used in this study. […] D39 was treated with 1/8 MIC DFMO alone, 1/4 MIC agmatine (Agm) alone, a combination of 1/8 MIC DFMO and 1/4 MIC Agm, and a control without DFMO or Agm. CPS was extracted as described in the previous section and immunoblot analysis with type 2 antisera was performed to detect CPS semi-quantitatively.
On the technique in general: Immunoblotting shows a protein as a band on a membrane.

In test [2] the test system is EF3030 (serotype 19F) capsule. The test is described as above. It counts as cell-based, Streptococcus pneumoniae. The following applies: serotype 19F; AMXT 1501 at 1/2 MIC. As for the experimental part: as §1, §2
The next test relates to D39 (serotype 2) capsule. Described as above. In kind it is cell-based, Streptococcus pneumoniae. The following applies: D39; for total CPS (capsule) by immunoblot: DFMO 1/8 MIC 34 mM, agmatine 1/4 MIC 20 mM, AMXT 1501 1/2 MIC 7.4 µM, alone or with agmatine. Here is the method:
as §1, §2

For test [3], the system named is TIGR4 (serotype 4) capsule. The test is described as above. It counts as cell-based, Streptococcus pneumoniae. Conditions: serotype 4; AMXT 1501 at 1/2 MIC. Here is the method:
as §1, §2

In test [4] the target is T1, SP_0916 (arginine decarboxylase, ADC) (Streptococcus pneumoniae, UniProt A0A0H2UPK4). The following applies: Km of the enzyme for the decarboxylase substrate; rows named by product; previously reported ref 18; cited from earlier work.
Test [5] concerns the target T1, SP_0916 (arginine decarboxylase, ADC). Kind of test: Inhibition of decarboxylase activities of recombinant SP_0916 (LC-MS). It counts as biochemical. The following applies: read-out: DFMA IC50. An excerpt: We determined the impact of DFMO (ODC/ADC inhibitor) and α-difluoromethylarginine (DFMA, an ADC inhibitor) on the decarboxylase activities of SP_0916. BL21(DE3) cells expressing recombinant His tag SP_0916 were lysed with B-PER reagent buffer (Thermo Fisher Scientific, Waltham, MA, USA), lysate separated by loading unto HisPur Cobalt Spin Column (Thermo Fisher Scientific, Waltham, MA, USA), desalted using Sephadex G-25 PD-10 column (GE Healthcare, Chicago, IL, USA), and protein concentration estimated using the Pierce BCA Protein Assay kit (Thermo Fisher Scientific, Waltham, MA, USA).
SP_0916-encoded protein (0.926 µmol L^−1) was mixed with 10 mM substrate (arginine, lysine or ornithine) in the reaction mixture (500 µL reaction volume, 50 mM Tris–HCl, pH 8.0) that contains 2.5 mM MgSO4 and 0.6 mM PLP. DFMO was diluted in water to 3–900 mM and added to the reaction mixture after 5 min preincubation at 37 °C in the dark. DFMA stock was made in a similar manner but was diluted in water to 0.3–1000 µM. The enzyme and inhibitor were incubated at 37 °C for 15 min in the dark and the reaction terminated with 0.3 M perchloric acid. After incubation on ice for 15 min, the samples were neutralized with 25 µL of 10 N KOH and extracted with 1 mL of 1-butanol. The organic layer was dried under nitrogen gas and reconstituted with 100 µL of water containing Spermidine-d8 and Glucose-d7 as an internal standard. Analysis of the extracts was performed on a Surveyor LC–MS system. 5 µL of reconstitution was injected to the LC–MS system for detection of the products (agmatine, cadaverine or putrescine). We used internal standards to normalize and determine the peak intensity (area ratio) for each metabolite detected. Enzyme activity without inhibitor is referred to as a control activity. All experiments were performed in triplicate. The concentration of inhibitor that inhibited 50% of the control activity (IC50 value) was determined by varying the concentration of the indicated DFMO or DFMA and measuring the decarboxylase activity. Sigma Plot v. 12 was used to fit the curve through the points and IC50 values were interpolated from the fitted curve.

Where [6] appears, read: DFMO 34 mM, agmatine 20 mM, AMXT 1501 7.4 µM, p-value in bracket omitted.

T1 sequence (A0A0H2UPK4 entry or part of it): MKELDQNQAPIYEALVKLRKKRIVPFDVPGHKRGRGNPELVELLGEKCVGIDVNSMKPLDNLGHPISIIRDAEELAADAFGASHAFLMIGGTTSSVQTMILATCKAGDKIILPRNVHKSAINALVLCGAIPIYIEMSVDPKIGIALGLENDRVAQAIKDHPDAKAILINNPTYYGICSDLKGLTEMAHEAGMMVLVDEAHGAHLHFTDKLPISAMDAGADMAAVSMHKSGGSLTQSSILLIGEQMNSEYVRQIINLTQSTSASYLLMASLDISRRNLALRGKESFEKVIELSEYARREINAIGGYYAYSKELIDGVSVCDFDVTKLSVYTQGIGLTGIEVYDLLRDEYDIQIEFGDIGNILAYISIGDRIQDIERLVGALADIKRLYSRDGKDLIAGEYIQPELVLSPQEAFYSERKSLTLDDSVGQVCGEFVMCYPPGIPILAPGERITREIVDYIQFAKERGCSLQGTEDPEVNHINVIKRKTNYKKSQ

As to `CCCCCCCCCCCCCCCC(=O)NCCCC[C@@H](N)C(=O)NCCCNCCCCNCCCN` [AMXT 1501], the MIC in test [1] (read-out: 1/2 MIC) came out at 7.4 µM (≈ 4.21 µg/mL). In addition, in the test on S. pneumoniae D39 (1/8 MIC DFMO (34 mM), 1/2 MIC AMXT 1501 (7.4 µM)), the “intracellular glucose (peak intensity)” value was “increases glucose level”. For the same compound, the “intracellular glucuronic acid (peak intensity)” value with S. pneumoniae D39 (1/8 MIC DFMO (34 mM), 1/2 MIC AMXT 1501 (7.4 µM), separately or in combination) is reported as “significantly depleted”. In the test with S. pneumoniae D39 (setting [6]), the “Agmatine, fold change treated D39 /D39” value is listed as -1.5 (0.006); the “Arginine, fold change treated D39 /D39” value is given as -0.1 (0.546); the “Cadaverine, fold change treated D39 /D39” value is -1.2 (4.61E-04); the “Lysine, fold change treated D39 /D39” value is given as -0.5 (3.48E-04). In the test with S. pneumoniae D39 (setting [6]), the “N-acetyl spermidine, fold change treated D39 /D39” value was -1.6 (0.022); the “N-carbamoyl putrescine, fold change treated D39 /D39” value is given as -1.8 (0.016); the “Ornithine, fold change treated D39 /D39” value is -0.5 (0.004); the “Putrescine, fold change treated D39 /D39” value was -1.4 (0.001). In the test on S. pneumoniae D39 (setting [6]), the “Spermidine, fold change treated D39 /D39” value is given as -5.5 (0.006) and the “Spermine, fold change treated D39 /D39” value is listed as -0.3 (0.455). In addition, the “impact on CPS” value in the test with WU2 (serotype 3) capsule was “had no impact on CPS”. In test [2], the “impact on CPS” value is “had no impact on CPS”. Moreover, the “less capsule compared to untreated controls (densitometry of immunoblots)” value in the test with D39 (serotype 2) capsule (1/2 MIC AMXT 1501 (7.4 µM)) came to 61%. Moreover, the “total CPS (capsule) by immunoblot” value in the test with D39 (serotype 2) capsule is reported as “Loss of capsule”. In addition, in test [3], the “impact on CPS” value is “had no impact on CPS”.

With `NCCCCN=C(N)N` [Agmatine, agmatine], in test [1] (D39, concentration equal to a quarter of the MIC, read-out: 1/4 MIC), the MIC stood at 20000 µM (≈ 2600 µg/mL). In addition, in the test on S. pneumoniae D39 (setting [6]), the “Agmatine, fold change treated D39 /D39” value is 10.2 (1.61E-06); the “Cadaverine, fold change treated D39 /D39” value is given as -0.3 (0.204); the “Lysine, fold change treated D39 /D39” value is reported as 0.1 (0.048); the “N-acetyl spermidine, fold change treated D39 /D39” value is 0.8 (0.009). For the same compound, in the test on S. pneumoniae D39 (setting [6]), the “N-carbamoyl putrescine, fold change treated D39 /D39” value is 9.6 (1.58E-05); the “Ornithine, fold change treated D39 /D39” value was 0.1 (0.149); the “Putrescine, fold change treated D39 /D39” value is listed as 3.3 (0.004); the “Spermidine, fold change treated D39 /D39” value is 0.6 (0.283). Moreover, the “Spermine, fold change treated D39 /D39” value in the test on S. pneumoniae D39 (setting [6]) was 1.4 (3.30E-04). Moreover, the “total CPS (capsule) by immunoblot” value in the test on D39 (serotype 2) capsule is “does not impact the capsule”. Besides, the Michaelis-Menten constant (Km) (as a rule, the substrate concentration at which the rate is half of its maximum) in test [4] is 110 ± 20 µM.

With `NCCCCCN` [Cadaverine, cadaverine], the Km in test [4] is 1610 ± 280 µM.

`N=C(N)NCCC[C@](N)(C(=O)O)C(F)F` [DFMA, α-difluoromethylarginine]: the IC50 (usually the concentration needed to halve the response being measured) in test [5] (arginine to agmatine, 10 mM substrate, 15 min, 37 °C) is 1.1 ± 0.1 µM; in test [5] (lysine to cadaverine, 10 mM substrate, 15 min, 37 °C), 56.6 ± 11.9 µM; in test [5] it was 40.5 ± 11.6 µM.

For the compound `NCCCCN` [Putrescine, putrescine], the Km in test [4] was 3550 ± 280 µM.
